The nature of data set [1]: elimination of GA metabolites in SD rats intravenously injected with GA. The data set is classed as in vivo, Sprague-Dawley (SD) rats. To be noted: female SD rats. The text has this:
(§1) Briefly, after diluting serum and urine samples with water to obtain suitable concentrations, they were digested with subtilisin (0.91 U/ml), followed by the addition of astragaloside IV (used as an internal standard; Fujifilm Wako Pure Chemicals, Osaka, Japan), and deproteinized using 80% ethanol. […] The transitions (precursor to daughter) monitored and retention times were as follows: ESI(+), 743.4 to 567.5 m/z (35 and 25 V for cone voltage and collision energy, respectively) for compound 1 (8.1 min); ESI(–), 565.5 to 96.5 m/z (80 and 60 V) for 2 (9.6 min); ESI(–), 549.5 to 96.5 m/z (80 and 60 V) for 3 (15.4 min); ESI(+), 727.3 to 551.2 m/z (30 and 25 V) for 4 (11.3 min); ESI(+), 647.6 to 453.6 m/z (40 and 20 V) for 3MGA (15.0 min); ESI(+), 471.3 to 91.0 m/z (40 and 20 V) for GA (13.4 min); ESI(+), 823.5 to 453.6 m/z (30 and 20 V) for GL (18.4 min); and ESI(+), 785.4 to 143.0 m/z (30 and 20 V) for astragaloside IV (3.0 min). Linear regressions over the concentration range of 2 nM to 2 µM for each compound were examined using the peak-area ratio of the compounds to their internal standards and the least-squares method (r ^ 2 > 0.98). The detection limits for 1, GL, and GA were 6.4 nM, and those for 2, 3, and 4, and 3MGA were 3.2 nM.
FIGURE 6 Elimination of glycyrrhizin (GL) metabolites into bile in Sprague-Dawley (SD) rats. Female SD rats (10 week-old) were anesthetized using intraperitoneal injection of urethane (1 g/kg), and biliary tracts were cannulated. […] Concentrations of GA metabolites were measured using liquid chromatography-tandem mass spectrometry (LC-MS/MS) and accumulated elimination of GA-metabolites are means ± standard error (S.E: n = 3).

The nature of data set [2]: measurement of GL metabolites in human serum and urine samples (LC-MS/MS). Format: in vivo. As for the experimental part:
Measurement of Compound 4 in Human Serum Samples
Human serum samples (100 µl) were pre-treated as described in the protocol reported in our previous study ([Takahashi et al., 2019]), and the concentration of 4 was measured using LC-tandem mass spectrometry (MS/MS) as described below. This study was conducted with the approval of the appropriate ethics committee at Keio University, Chiba University, Kanazawa University, and Kameda Medical Center.
as §1

Data set [3] in a line: pharmacokinetics of GA metabolites in EHBRs orally treated with GA. To be noted: Eisai hyperbilirubinuria rat (EHBR), rat, plasma, 200 mg/kg, GA 0.20 g/kg oral, read-out: plasma concentration 12 h after oral administration of GA. Format: in vivo, Eisai hyperbilirubinuria rats (EHBRs). The procedure:
Pharmacokinetic Experiments of GA Metabolites in EHBRs Orally Treated With GA
Male and female EHBRs (9 week-old) were anaesthetized by an intraperitoneal injection of urethane (1 g/kg) and their jugular veins were exposed. GA suspended in 0.5% carboxymethylcellulose was then administered orally (200 mg/kg) to the unconscious rats, and blood samples were collected from the jugular vein while urine samples were collected using a metabolic cage at appropriate times over a 12 h period.
LC-MS/MS Analysis for GA Metabolites
as §1
FIGURE 5 Pharmacokinetic profiles of glycyrrhizin (GL) metabolites in female (A–C) and male (D–F) Eisai hyperbilirubinuria rats (EHBRs). […] Data of GA, 3MGA, 1, 2, and 3 in (A) and GA, 3MGA, 2, and 3 for (D) are relatively small; their magnified graphs are shown in (B,E), respectively. Concentrations of GA metabolites were measured using liquid chromatography-tandem mass spectrometry (LC-MS/MS), and data are means ± standard error (S.E: n = 4).

The target in data set [4] is T1, albumin (Rattus norvegicus, UniProt P02770).
T1 construct: from tissue; host or cells: pooled plasma of EHBRs orally treated with GA
Kind of data set: binding of compound 4 to albumin in pooled EHBR plasma (ultrafiltration). The data set is classed as in vitro ADME, Eisai hyperbilirubinuria rats (EHBRs). As for the experimental part: (§2) Binding of Compound 4 to Albumin
(§3) We measured the binding ratios of 4 to albumin in pooled plasma of female EHBRs using the same protocol used in our previous study ([Ishiuchi et al., 2019]).
(§4) The pooled plasma samples collected from EHBRs 12 h after oral treatment with GA were loaded into ultracentrifuge filters with a 1 × 10^4 molecular weight cut-off and concentrated by centrifugation. The concentrations of 4 in the pooled plasma and the filtrate were 77 µM and undetectable, respectively. Based on the detection limits (3.2 nM) in the LC-MS/MS analysis, the albumin-binding ratios of 4 in the plasma was calculated to be more than 99.9%.

Assay in data set [5]: as above
Format: in vitro ADME, Eisai hyperbilirubinuria rats (EHBRs). To be noted: female, Eisai hyperbilirubinuria rat (EHBR), rat, 200 mg/kg; pooled plasma of EHBRs 12 h after oral GA. The procedure:
as §2, §3, §4

Data set [6] in a line: relationship of serum concentration of compound 4 with laboratory markers and symptoms of pseudohyperaldosteronism. Format: in vivo, human. The text has this: Evaluation of the Pathological Relationship Between Compound 4 and Pseudohyperaldosteronism Pathology
We recorded the following available clinical symptoms and laboratory data when blood samples were drawing from patients: age, sex, complications, concomitant medications, daily liquorice dose, duration of administration of liquorice-containing herbal preparations, symptoms (blood pressure and pedal oedema), and laboratory test values, namely: total protein, albumin, total and direct bilirubin, aspartate amino transferase, alanine amino transferase, blood urea nitrogen, creatinine, sodium, potassium, chloride, calcium, magnesium, prothrombin time, plasma renin activity or activated renin concentration, and plasma aldosterone concentration (blood test data), and urine concentrations of potassium and creatinine (urinalysis data). Samples were processed according to the individual institutional protocols, and all data were measured at each institution.
FIGURE 3 Concentration of 4 in human serum samples and three or laboratory markers (A) Strong positive correlation was identified between serum concentrations of 3 and 4.

This is an account of results in article PMC8165744, “Identification of an Alternative Glycyrrhizin Metabolite Causing Liquorice-Induced Pseudohyperaldosteronism and the Development of ELISA System to Detect the Predictive Biomarker” (Frontiers in Pharmacology, 2021).

T1 sequence (P02770 25-608): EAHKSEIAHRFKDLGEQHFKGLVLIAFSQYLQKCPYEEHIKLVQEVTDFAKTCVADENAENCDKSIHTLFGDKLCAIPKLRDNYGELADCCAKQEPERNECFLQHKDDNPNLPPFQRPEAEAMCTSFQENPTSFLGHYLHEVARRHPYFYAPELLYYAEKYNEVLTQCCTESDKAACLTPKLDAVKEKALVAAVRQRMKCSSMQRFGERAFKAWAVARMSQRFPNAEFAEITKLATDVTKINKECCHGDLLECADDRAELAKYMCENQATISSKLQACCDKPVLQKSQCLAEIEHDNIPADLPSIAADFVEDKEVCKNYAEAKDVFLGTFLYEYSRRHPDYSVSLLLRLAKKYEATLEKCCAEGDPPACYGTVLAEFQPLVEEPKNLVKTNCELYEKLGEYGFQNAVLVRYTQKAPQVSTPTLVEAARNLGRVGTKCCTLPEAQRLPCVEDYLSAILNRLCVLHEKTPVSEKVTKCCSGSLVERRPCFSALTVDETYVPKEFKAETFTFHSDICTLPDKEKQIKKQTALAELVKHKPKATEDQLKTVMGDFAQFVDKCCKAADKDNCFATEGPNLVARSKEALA

As to `CC1(C)[C@@H](OS(=O)(=O)O)CC[C@]2(C)[C@H]3C(=O)C=C4[C@@H]5C[C@@](C)(C(=O)O[C@@H]6O[C@H](C(=O)O)[C@@H](O)[C@H](O)[C@H]6O)CC[C@]5(C)CC[C@@]4(C)[C@]3(C)CC[C@@H]12` [Compound 4, 18β-glycyrrhetyl-3-O-sulfate-30-O-glucuronide], the “accumulation in the bile” value in data set [1] (GA 0.2 mg/kg iv, bile collected for 4 h) was “the highest”. Also, the “accumulative elimination in faeces” value in data set [1] (GA iv, faeces collected 24 h after injection) is given as “below detectable levels”. Also, in data set [2] (human serum, patients with suspected pseudohyperaldosteronism), the “serum concentration of 4 relative to that of 3 (fold lower)” value was “approximately 10 fold”. Further, the concentration in urine in data set [2] (human, one urine sample among 20 available samples) turned out to be 0.003 µM. Also, the “number of serum samples in which compound was detected” value in data set [2] (of 70 participants taking liquorice-containing herbal preparations) was found to be 62 samples. In addition, the concentration at 12 h came to 208 µM in data set [3] (female EHBRs), 237 µM in data set [3] (male EHBRs) and 77 µM in data set [5]. The “albumin-binding ratio in plasma” value in data set [4] (pooled EHBR plasma, 1 × 10^4 MW cut-off filter, calculated from detection limit 3.2 nM) was “more than 99.9%”. Further, the concentration in filtrate result in data set [4] (ultracentrifuge filtrate of pooled EHBR plasma) is “undetectable”. Also, the “relationship with clinical symptoms” value in data set [6] (blood pressure, oedema) is given as “not significant”. For the same compound, the “correlation of serum concentration with plasma renin activity and aldosterone concentration” value in data set [6] (human serum samples) was “negative correlations”. In data set [6] (human serum samples), the “serum potassium concentration in participants with higher serum concentrations” value is “tended to be lower”.
